In BindingDB's records for doi:10.1111/cbdd.12174 (Washington State University At Pullman, 2013):

Target: T1, Glutamate carboxypeptidase 2 [44-750] (Homo sapiens, UniProt Q04609)
T1 construct: 44-750
Test: IC50 Assay
Conditions: pH 7.4; 37 °C
Procedure: Inhibitors were made in TRIS buffer (50mM Tris pH 7.4 containing 1% Triton X-100). Working solutions of purified GCPII (50ug/mL) were diluted in TRIS buffer to provide from 15% to 20% conversion of substrate to product in the absence of inhibitor. The incubation mixture (final volume 250μL) contained either 25μL of an inhibitor solution or 25μL TRIS buffer to 175μ TRIS buffer in a test tube, followed by the addition of PABGgG (25μL, […]). The enzymatic reaction was initiated by the addition of 25μL of the GCPII working solution and allowed to proceed for 15min with constant shaking at 37°C. The reaction was quenched by the addition of 25μL methanolic TFA (2% trifluoroacetic acid by volume in methanol) followed by vortexing. The quenched mixture was immediately buffered by the addition of 25μL K2HPO4 (0.1M), vortexed, and centrifuged.

T1 sequence (Q04609 44-750): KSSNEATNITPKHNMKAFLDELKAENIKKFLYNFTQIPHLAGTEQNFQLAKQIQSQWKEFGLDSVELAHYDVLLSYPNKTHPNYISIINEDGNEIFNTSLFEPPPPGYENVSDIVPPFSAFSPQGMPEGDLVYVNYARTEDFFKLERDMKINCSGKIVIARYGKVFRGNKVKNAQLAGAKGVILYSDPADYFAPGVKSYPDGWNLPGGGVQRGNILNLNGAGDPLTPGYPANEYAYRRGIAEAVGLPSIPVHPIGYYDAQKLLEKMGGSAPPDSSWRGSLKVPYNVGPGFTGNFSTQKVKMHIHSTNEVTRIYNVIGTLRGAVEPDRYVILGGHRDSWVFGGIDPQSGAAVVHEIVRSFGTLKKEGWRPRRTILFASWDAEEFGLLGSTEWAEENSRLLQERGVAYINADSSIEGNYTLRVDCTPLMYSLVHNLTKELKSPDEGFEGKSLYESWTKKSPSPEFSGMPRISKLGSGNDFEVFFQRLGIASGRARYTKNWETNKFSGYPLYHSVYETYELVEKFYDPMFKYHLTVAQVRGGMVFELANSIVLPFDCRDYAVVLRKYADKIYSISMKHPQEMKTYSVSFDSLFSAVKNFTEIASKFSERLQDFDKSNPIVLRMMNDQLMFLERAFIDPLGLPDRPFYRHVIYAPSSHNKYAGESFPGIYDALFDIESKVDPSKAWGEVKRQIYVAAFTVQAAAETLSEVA

IC50: > 100 µM
Compound: O=C(O)CC[C@H](NS(=O)(=O)NC[C@H](NC(=O)c1ccccc1)C(=O)O)C(=O)O [(S)-2-((N-((S)-2-benzamido-2-carboxyethyl)sulfamoyl)amino)pentanedioic acid (2b)]
